{"source": "patent US20200215022A1", "about": "“NOVEL CANNABINOID COMPOSITIONS AND METHODS OF TREATING PEDIATRIC EPILEPSY” (TILRAY, INC., priority 2016, published 2020)", "origin": "cited, not measured here", "key": {"CB2": {"target": "CB2 (Homo sapiens, UniProt P34972)", "sequence (P34972 whole entry, species assumed)": "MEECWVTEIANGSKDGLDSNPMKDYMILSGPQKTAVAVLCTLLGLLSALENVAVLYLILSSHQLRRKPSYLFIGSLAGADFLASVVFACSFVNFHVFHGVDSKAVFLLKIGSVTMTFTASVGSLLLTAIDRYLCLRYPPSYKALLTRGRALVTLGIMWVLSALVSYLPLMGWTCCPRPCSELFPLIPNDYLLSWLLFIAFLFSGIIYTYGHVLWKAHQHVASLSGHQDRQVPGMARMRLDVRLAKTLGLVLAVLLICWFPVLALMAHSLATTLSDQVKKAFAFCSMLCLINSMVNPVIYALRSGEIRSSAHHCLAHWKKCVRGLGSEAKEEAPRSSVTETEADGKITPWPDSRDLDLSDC", "conditions": "Pacher et al., 2006"}, "sodium channel": {"tested_on": "sodium channel", "conditions": "human and animal models"}, "CYP2B6": {"target": "T1, CYP2B6 (Homo sapiens, UniProt P20813)", "T1 sequence (P20813 1-491)": "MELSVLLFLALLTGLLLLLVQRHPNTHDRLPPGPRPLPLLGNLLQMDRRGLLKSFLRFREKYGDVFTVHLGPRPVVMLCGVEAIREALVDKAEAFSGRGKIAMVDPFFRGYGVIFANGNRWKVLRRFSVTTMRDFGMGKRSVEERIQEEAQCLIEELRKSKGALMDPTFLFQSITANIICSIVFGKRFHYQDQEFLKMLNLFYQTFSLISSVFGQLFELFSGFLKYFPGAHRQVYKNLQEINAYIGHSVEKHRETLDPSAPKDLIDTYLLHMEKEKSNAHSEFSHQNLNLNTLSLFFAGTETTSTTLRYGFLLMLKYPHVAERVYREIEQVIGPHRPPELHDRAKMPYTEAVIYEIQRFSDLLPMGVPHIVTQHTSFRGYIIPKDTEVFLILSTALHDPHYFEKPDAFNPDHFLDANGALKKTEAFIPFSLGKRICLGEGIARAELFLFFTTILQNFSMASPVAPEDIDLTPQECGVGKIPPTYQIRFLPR"}, "CYP2C8": {"target": "T2, CYP2C8 (Homo sapiens, UniProt P10632)", "T2 sequence (P10632 1-490)": "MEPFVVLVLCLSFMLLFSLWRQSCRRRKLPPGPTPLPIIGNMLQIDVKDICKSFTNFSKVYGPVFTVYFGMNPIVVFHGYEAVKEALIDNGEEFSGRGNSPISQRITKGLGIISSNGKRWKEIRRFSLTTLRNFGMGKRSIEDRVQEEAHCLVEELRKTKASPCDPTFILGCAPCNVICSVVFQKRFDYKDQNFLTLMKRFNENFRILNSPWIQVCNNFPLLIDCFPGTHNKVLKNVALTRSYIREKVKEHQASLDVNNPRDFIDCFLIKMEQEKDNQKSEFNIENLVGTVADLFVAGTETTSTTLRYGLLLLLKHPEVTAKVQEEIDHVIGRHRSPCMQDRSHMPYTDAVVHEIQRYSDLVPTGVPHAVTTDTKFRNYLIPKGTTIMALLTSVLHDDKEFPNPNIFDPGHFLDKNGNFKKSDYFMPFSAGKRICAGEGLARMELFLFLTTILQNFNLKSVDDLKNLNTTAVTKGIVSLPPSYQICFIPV"}, "CYP2C9": {"target": "CYP2C9 (Homo sapiens, UniProt P11712)", "sequence (P11712 whole entry)": "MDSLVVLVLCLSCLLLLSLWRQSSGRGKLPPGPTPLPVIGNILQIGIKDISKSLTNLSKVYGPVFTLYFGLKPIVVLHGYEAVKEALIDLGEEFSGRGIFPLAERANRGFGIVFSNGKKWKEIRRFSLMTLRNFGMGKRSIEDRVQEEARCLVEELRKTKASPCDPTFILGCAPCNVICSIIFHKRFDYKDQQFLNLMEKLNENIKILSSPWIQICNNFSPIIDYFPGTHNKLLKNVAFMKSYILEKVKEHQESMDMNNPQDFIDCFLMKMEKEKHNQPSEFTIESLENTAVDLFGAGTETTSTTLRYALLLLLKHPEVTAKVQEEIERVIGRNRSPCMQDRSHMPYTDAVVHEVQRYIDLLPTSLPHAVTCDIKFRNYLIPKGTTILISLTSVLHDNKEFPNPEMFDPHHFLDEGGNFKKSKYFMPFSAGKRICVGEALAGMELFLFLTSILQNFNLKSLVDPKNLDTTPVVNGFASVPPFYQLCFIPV"}, "CYP2C19": {"target": "CYP2C19 (Homo sapiens, UniProt P33261)", "sequence (P33261 whole entry)": "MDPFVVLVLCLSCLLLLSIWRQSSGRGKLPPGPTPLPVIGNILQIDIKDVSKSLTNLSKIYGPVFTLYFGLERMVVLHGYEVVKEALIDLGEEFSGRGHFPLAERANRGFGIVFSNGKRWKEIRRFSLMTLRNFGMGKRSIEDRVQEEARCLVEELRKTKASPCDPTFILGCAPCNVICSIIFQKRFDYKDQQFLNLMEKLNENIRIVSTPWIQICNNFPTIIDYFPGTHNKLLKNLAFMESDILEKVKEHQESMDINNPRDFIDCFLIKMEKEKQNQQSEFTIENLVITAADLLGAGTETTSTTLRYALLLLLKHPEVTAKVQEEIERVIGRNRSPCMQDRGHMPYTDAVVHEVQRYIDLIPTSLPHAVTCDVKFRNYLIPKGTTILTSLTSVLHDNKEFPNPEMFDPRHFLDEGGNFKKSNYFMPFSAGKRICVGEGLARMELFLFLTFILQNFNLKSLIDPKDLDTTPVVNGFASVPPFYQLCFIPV"}, "CYP3A4": {"target": "CYP3A4 (Homo sapiens, UniProt P08684)", "sequence (P08684 whole entry)": "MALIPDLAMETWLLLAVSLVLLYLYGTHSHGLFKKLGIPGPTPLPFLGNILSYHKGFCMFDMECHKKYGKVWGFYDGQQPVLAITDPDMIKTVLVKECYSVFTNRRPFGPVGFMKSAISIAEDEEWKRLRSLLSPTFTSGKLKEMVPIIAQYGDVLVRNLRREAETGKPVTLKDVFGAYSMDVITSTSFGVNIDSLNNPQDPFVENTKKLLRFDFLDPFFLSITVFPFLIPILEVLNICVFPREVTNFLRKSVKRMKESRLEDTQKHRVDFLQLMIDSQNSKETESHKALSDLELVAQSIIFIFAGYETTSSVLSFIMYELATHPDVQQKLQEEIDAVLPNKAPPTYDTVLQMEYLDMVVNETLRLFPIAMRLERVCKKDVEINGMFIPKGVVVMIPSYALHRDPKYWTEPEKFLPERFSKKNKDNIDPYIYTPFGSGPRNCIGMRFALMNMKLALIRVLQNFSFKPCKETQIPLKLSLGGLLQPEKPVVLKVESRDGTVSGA"}, "[1]": {"conditions": "in vivo"}}, "data": [{"molecule": "C=C(C)[C@@H]1CCC(C)=C[C@H]1c1c(O)cc(CCCCC)cc1O", "note": "[CBD, cannabidiol]", "values": [{"measurement": "Affinity for cannabinoid receptor CB2", "setting": "CB2", "value": "does not appear to have a great affinity"}, {"measurement": "Sodium channel block", "setting": "sodium channel", "value": "potent sodium channel blockers"}, {"measurement": "Inhibition of CYP2B6", "setting": "CYP2B6", "value": "potent inhibitor"}, {"measurement": "Inhibition of CYP2C8", "setting": "CYP2C8", "value": "potent inhibitor"}, {"measurement": "Inhibition of CYP2C9", "setting": "CYP2C9", "value": "potent inhibitor"}, {"measurement": "Inhibition of CYP2C19", "setting": "CYP2C19", "value": "potent inhibitor"}, {"measurement": "Inhibition of CYP3A4", "setting": "CYP3A4", "value": "potent inhibitor"}, {"measurement": "Lipid solubility", "value": "highly lipid soluble"}, {"measurement": "Route of excretion", "setting": "[1]", "value": "excreted in the urine and feces"}, {"measurement": "Time CBD levels are detected post administration", "setting": "[1]", "value": "up to 8 hours"}]}, {"molecule": "CCCCCc1cc(O)c(C/C=C(\\C)CCC=C(C)C)c(O)c1", "note": "[CBG, cannabigerol]", "values": [{"measurement": "Sodium channel block", "setting": "sodium channel", "value": "potent sodium channel blockers"}]}]}
